Patent US8034574B2, “Screening method for prokinetic agent” (Astellas Pharma Inc., priority 2006, dated 2011)
“Also recorded” adds a separate entry of the source.

Columns and labels:
RIN14B cells = assay: Serotonin secretion from RIN14B cells (immunoassay); format: cell-based, rat; conditions: 20 minutes culture
Method: After RIN14B cells in culture in a Petri dish were detached using a PBS containing 1 mM EDTA, they were sown to a 96-well plate and cultured for 2 days. The medium used was RPMI1640 (Invitrogen Japan K.K.) supplemented with 10% fetal bovine serum (ICN), 100 U/ml penicillin, and 100 μg/ml streptomycin. After the cells were once washed with Hanks' Balanced Salt Solutions (HBSS, Invitrogen) supplemented with 0.1% BSA and 10 μM fluoxetine (TOCRIS), each TRPA1 activator, previously diluted/prepared with the above-described HBSS, was added, and the RIN14B cells were cultured at 37° C. in the presence of 5% CO2 for 20 minutes. After the cultivation, the cell supernatant was recovered, and stored under freezing. The serotonin content in the supernatant was measured using a commercially available serotonin immunoassay kit (Beckman).

[1] = test system: dog digestive tract movement; assay: Dog digestive tract movement by strain gauge force transducer method
[2] = test system: CHO-K1 cells not expressing the polypeptide shown by SEQ ID NO:2; assay: Intracellular calcium by FLIPR in negative control CHO-K1 cells; format: cell-based; conditions: CHO-K1 cells not expressing TRPA1
[3] = test system: mouse ileum loop water secretion; assay: Mouse gut water secretion (ileum loop); format: in vivo; conditions: 6 hours; for water secretion from the gut: mouse ileum loop, 10, 100, 1,000 μg
Method: Mice (ddy, male, 35-42 g, SLC), fasted overnight, were anesthetized with pentobarbital (50 mg/kg i.p.) and laparotomized, and ileum tissue about 2 cm in the vicinity of the cecum was ligated with a thread at both ends to prepare an ileum loop. […] After the administration, the gut was returned to the original position, and the abdominal muscle and the skin were sutured. Six hours after the treatment, each mouse was killed by cervical dislocation, after which the ileum loop was extirpated, and the content was weighed.

C=CCN=C=S [allyl isothiocyanate]
serotonin secretion from RIN14B cells (RIN14B cells): serotonin secretion was promoted; also recorded: concentration-dependently promoted the release of serotonin
induction of GMC ([1]; oral): induced GMC
time after administration to induction of colon GMC (Giant migrating contraction) ([1]; oral, 1, 10 mg/kg): ≤ 10 min
stomach movement ([1]; oral, just after administration): accentuated stomach movement just after administration
elevation of fluorescence intensity in negative control cells [2]: none of these compounds produced an elevation of fluorescence intensity
water secretion accentuating action, 1,000 μg dose group ([3]; mouse ileum loop, 1,000 μg): significant water secretion accentuating action observed
water secretion from the gut [3]: dose-dependently accentuated water secretion from the gut
water secretion from the gut ([3]; listed as Allyl isothiocyanate): concentration-dependently accentuated water secretion compared to the vehicle control
